How the values were obtained:
[1] = tested on: MRC-5 normal embryonic lung fibroblast cell line; experiment: Cytotoxic activity assay (MTT), normal cells; assay type: cell-based; settings: Homo sapiens, MRC5, 48 h exposure, read-out: Cell lines, IC50 (μM) MRC-5
Procedure, shortened: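 Seeding: 5000–20,000 cells/well, 24 h at 37 °C, 95% humidity, 5% CO2. Treatment: equal volume of medium with compound, 48 h. Detection: MTT 2.5–4 h, DMSO solubilisation, A550 minus A650.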

MDA-MB-231 cells [2] = experiment: Cell death analysis, annexin V/7-AAD double staining, flow cytometry; assay type: cell-based, human; settings: for mode of cell death: MDA-MB-231 cells, 24–48 h treatment
Method: (§1) Mode of cell death induced by compound 4l was explored using MDA-MB-231 cells by observing change in cell morphology and flow cytometric analysis of annexin V/7-AAD double stained cells. […] Accidental cell death necrosis is typically indicated by the immediate production of bubbles on the cell surface after treatment. […] Additionally, vacuole accumulation was not observed in the treated cells until 48 h after treatment (Fig. 3a). Taken together, we hypothesized that 4l-induced cell death in MDA-MB-231 cells was not processed through necrosis or vacuole-presenting regulated cell death such as autophagy.
Briefly, MDA-MB-231 cells were seeded into 6-well culture plates at 1 × 10^6 cells/well and left in a CO2 incubator for 24 h. Subsequently, the cells were treated with tested compounds for 24–48 h. DMSO was used as a vehicle and its final concentration was kept at 0.2% (v/v) throughout the study. The treated cells were harvested by trypsinization and subjected to annexin V/7-AAD double staining using Muse® Annexin V & Dead Cell Kit as previously described. The stained cells were analyzed by flow cytometric technique using Muse® Cell Analyzer. Population of annexin V-positive cells was defined as early apoptotic cells, and the population positive for both annexin V and 7-AAD was defined as late apoptotic cells. The sequential events of increasing early and late apoptotic cell populations over time is a characteristic of apoptotic cell death.

phospho-FAK (Y397) = experiment: Western blot analysis of FAK phosphorylation; assay type: cell-based, human; settings: MDA-MB-231 cells, 24 h
Method: (§2) We further investigated targets of compound 4l on cell survival signaling pathways including EGFR, FAK, Akt, and ERK in MDA-MB-231 cells. After treatment with 4l at concentrations of 25–50 µM for 24 h, activation (phosphorylation) of the signaling pathways was determined by using western blot analysis.
(§3) MDA-MB-231 cells in 6-well culture plates (1 × 10^6 cells/well) were treated with tested compounds for 24 h. Then the cells were harvested and western blot analysis was used to detect alteration of targeted proteins in the treated cells, as previously described. Briefly, the cells in 6-well culture plates were scraped in RIPA cell lysis buffer supplemented with protease/phosphatase inhibitor cocktail before being lysed by sonication. Cell lysates were centrifuged at 12,000×g for 5 min, at 4 °C, to remove cell debris. Total proteins (20 μg) in the cell lysates were separated by SDS-PAGE and blotted to PVDF membranes. The membranes were blocked with 3% (w/v) BSA and incubated overnight at 4 °C with primary antibodies specific to the following proteins: EGFR, phospho-EGFR (Y845), FAK, phospho-FAK (Y397), Akt, phospho-Akt (S473), ERK, and phospho-ERK (T202/Y204). […] Bands of specific proteins were detected by using SuperSignal™ ECL substrates and visualized on X-ray films.

phospho-ERK (T202/Y204) = experiment: Western blot analysis of ERK phosphorylation; assay type: cell-based, human; settings: MDA-MB-231 cells, 25–50 µM, 24 h
Method: as §2, §3

phospho-Akt (S473) = experiment: Western blot analysis of Akt phosphorylation; assay type: cell-based, human; settings: MDA-MB-231 cells, 25–50 µM, 24 h
Method: as §2, §3

[3] = tested on: MOLT-3 (T cell acute lymphoblastic leukemia); experiment: Cytotoxic activity assay (XTT); assay type: cell-based, human; settings: for IC50: Homo sapiens, MOLT-3, 48 h exposure, XTT, read-out: Cell lines, IC50 (μM) MOLT-3; for Selectivity Index (SI) values MOLT-3: SI = IC50 normal cell (MRC-5)/ IC50 cancer cell
[4] = tested on: HL-60 (acute promyelocytic leukemia); experiment: Cytotoxic activity assay (XTT); assay type: cell-based, human; settings: for IC50: Homo sapiens, HL-60, 48 h exposure, XTT, read-out: Cell lines, IC50 (μM) HL-60; for Selectivity Index (SI) values HL-60: SI = IC50 normal cell (MRC-5)/ IC50 cancer cell
Procedure, shortened: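 Cytotoxicity against the suspended leukemia line HL-60 was measured with the XTT method, using doxorubicin and etoposide as positive controls. Cells (5000–20,000 per well, 75 µL) were allowed 30 min at 37 °C with 5% CO2 and were then treated with compound in an equal volume of medium for 48 h. After 4 h with 75 µL XTT reagent, plates were read at 492 nm with a 690 nm reference. MRC-5 normal lung fibroblasts served as the normal-cell comparison.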

[5] = tested on: HeLa (cervical carcinoma); experiment: Cytotoxic activity assay (MTT); assay type: cell-based, human; settings: for IC50: Homo sapiens, 48 h exposure, MTT, read-out: Cell lines, IC50 (μM) HeLa; for Selectivity Index (SI) values HeLa: SI = IC50 normal cell (MRC-5)/ IC50 cancer cell
Procedure, shortened: (§4)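 MTT readout, A550 (ref 650 nm) after DMSO solubilisation; cells 5000–20,000/well, 24 h pre-growth, 48 h compound exposure, 37 °C/5% CO2. MTT incubation 2.5–4 h.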

[6] = tested on: HepG2 (hepatocellular carcinoma); experiment: Cytotoxic activity assay (MTT); assay type: cell-based, human; settings: for IC50: Homo sapiens, HepG2, 48 h exposure, MTT, read-out: Cell lines, IC50 (μM) HepG2; for Selectivity Index (SI) values HepG2: SI = IC50 normal cell (MRC-5)/ IC50 cancer cell
Procedure, shortened: as §4

[7] = tested on: T-47D (hormone-dependent breast cancer); experiment: Cytotoxic activity assay (MTT); assay type: cell-based, human; settings: for IC50: Homo sapiens, T47D, 48 h exposure, MTT, read-out: Cell lines, IC50 (μM) T47-D; for Selectivity Index (SI) values T47-D: SI = IC50 normal cell (MRC-5)/ IC50 cancer cell
Procedure, shortened: as §4

[8] = tested on: MDA-MB-231 (triple-negative breast cancer); experiment: Cytotoxic activity assay (MTT); assay type: cell-based, human; settings: for IC50: Homo sapiens, MDA-MB-231, 48 h exposure, MTT, read-out: Cell lines, IC50 (μM) MDA-MB-231; for Selectivity Index (SI) values MDA-MB-231: SI = IC50 normal cell (MRC-5)/ IC50 cancer cell
Procedure, shortened: as §4

[9] = tested on: HuCCA-1 (cholangiocarcinoma derived from a patient); experiment: Cytotoxic activity assay (MTT); assay type: cell-based, human; settings: for IC50: Homo sapiens, HuCC-A1, 48 h exposure, MTT, read-out: Cell lines, IC50 (μM) HuCCA-1; for Selectivity Index (SI) values HuCCA-1: SI = IC50 normal cell (MRC-5)/ IC50 cancer cell
Procedure, shortened: as §4

[10] = tested on: H69AR (multidrug-resistant small cell lung carcinoma); experiment: Cytotoxic activity assay (MTT); assay type: cell-based, human; settings: for IC50: Homo sapiens, H69AR, 48 h exposure, MTT, read-out: Cell lines, IC50 (μM) H69AR; for Selectivity Index (SI) values H69AR: SI = IC50 normal cell (MRC-5)/ IC50 cancer cell
Procedure, shortened: as §4

[11] = tested on: A549 (lung adenocarcinoma); experiment: Cytotoxic activity assay (MTT); assay type: cell-based, human; settings: for IC50: Homo sapiens, A549, 48 h exposure, MTT, read-out: Cell lines, IC50 (μM) A549; for Selectivity Index (SI) values A549: SI = IC50 normal cell (MRC-5)/ IC50 cancer cell
Procedure, shortened: as §4

MDA-MB-231 cells [12] = experiment: Cell morphology of treated cells (microscopy); assay type: cell-based, human; settings: MDA-MB-231, 25–50 µM
Method: as §1

phospho-EGFR (Y845) = experiment: Western blot analysis of EGFR phosphorylation; assay type: cell-based, human; settings: MDA-MB-231 cells, 25–50 µM, 24 h
Method: as §2, §3

Row | SMILES | IC50 [1] [µM] | mode of cell death (MDA-MB-231 cells [2]) | IC50 [3] [µM] | Selectivity Index (SI) values MOLT-3 [3] | IC50 [4] [µM] | Selectivity Index (SI) values HL-60 [4] | IC50 [5] [µM] | Selectivity Index (SI) values HeLa [5] | IC50 [6] [µM] | Selectivity Index (SI) values HepG2 [6] | IC50 [7] [µM] | Selectivity Index (SI) values T47-D [7] | IC50 [8] [µM] | Selectivity Index (SI) values MDA-MB-231 [8] | IC50 [9] [µM] | Selectivity Index (SI) values HuCCA-1 [9] | IC50 [10] [µM] | Selectivity Index (SI) values H69AR [10] | IC50 [11] [µM] | Selectivity Index (SI) values A549 [11] | also measured
1 | C=C1CC[C@H]2C(C)(C)CCC[C@]2(C)[C@H]1CC/C(C)=C/C(=O)NOC1CCCCO1 (stereo partly drawn) [Compound 4l, (E)-3-Methyl-N-((tetrahydro-2H-pyran-2-yl)oxy)-5-((1S,4aS,8aS)-5,5,8a-trimethyl-2-methylenedecahydronaphthalen-1-yl)pent-2-enamide] | 40.3 ± 2.11 | non-apoptotic regulated cell death | 26.2 ± 1.76 | 1.5 | 21.4 ± 0.31 | 1.9 | 26.44 ± 0.04 | 1.5 | 73.5 ± 2.15 | 0.5 | 66.1 ± 6.39 | 0.6 | 13.73 ± 0.04 | 2.9 | 58.67 ± 0.13 | 0.7 | 94.6 ± 1.67 | 0.4 | 57.7 ± 1.2 | 0.7 | late apoptotic cell population (MDA-MB-231 cells [2]; MDA-MB-231, 25–50 µM, 48 h, control 5.8%, mean of three experiments (Fig. 3c)): 19.0–26.3%; phosphorylation of FAK protein (phospho-FAK (Y397); 25–50 µM): selectively reduced; phosphorylation of ERK (phospho-ERK (T202/Y204)): not affected; phosphorylation of Akt (phospho-Akt (S473)): not affected; necrosis (immediate formation of bubbles on cell surface) (MDA-MB-231 cells [12]; 24–48 h): did not induce necrosis; vacuole accumulation (MDA-MB-231 cells [12]; until 48 h after treatment): not observed; phosphorylation of EGFR (phospho-EGFR (Y845)): not affected
2 | Cl.Cl.Cl.Cl.Nc1cc(N)c(N)cc1N [FAKi, 1,2,4,5-benzenetetraamine tetrahydrochloride, reference compound] | – | non-apoptotic cell death | – | – | – | – | – | – | – | – | – | – | – | – | – | – | – | – | – | – | FAK phosphorylation (phospho-FAK (Y397); 16 μM): clearly inhibited
3 | C#CCNC(=O)/C=C(\C)CC[C@H]1C(=C)CC[C@H]2C(C)(C)CCC[C@]12C [Compound 4c, (E)-3-Methyl-N-(prop-2-yn-1-yl)-5-((1S,4aS,8aS)-5,5,8a-trimethyl-2-methylenedecahydronaphthalen-1-yl)pent-2-enamide] | 48.1 ± 0.62 | – | 23.2 ± 1.03 | 2.1 | 24.13 ± 0.08 | 2.0 | 28.1 ± 0.93 | 1.7 | 85.06 ± 0.61 | 0.6 | 76.6 ± 4.68 | 0.6 | 27.5 ± 0.62 | 1.8 | 52.7 ± 0.11 | 0.9 | 113 ± 1.35 | 0.4 | 54.1 ± 1.17 | 0.9 | –
4 | C=C1CC[C@H]2C(C)(C)CCC[C@]2(C)[C@H]1CC/C(C)=C/C(=O)N(C)C [Compound 4m, (E)-N,N,3-Trimethyl-5-((1S,4aS,8aS)-5,5,8a-trimethyl-2-methylenedecahydro-naphthalen-1-yl)pent-2-enamide] | 40.8 ± 0.56 | – | 21.3 ± 0.47 | 1.9 | 19.4 ± 0.84 | 2.1 | 40.1 ± 0.68 | 1.0 | 52.1 ± 2.82 | 0.8 | 42.6 ± 1.08 | 1.0 | 32.1 ± 1.68 | 1.3 | 44.31 ± 0.42 | 0.9 | 99.97 ± 0.74 | 0.4 | 51.82 ± 0.25 | 0.8 | –

— PMC10439230 (Scientific Reports, 2023)
